One series has as its system Anas platyrhynchos. Particulars: reproductive.
A further series deals with Daphnia magna. To be noted: chronic/long-term; duration: 21 days; reproduction.
In another series the test system is Oncorhynchus mykiss. To be noted: chronic/long-term; duration: 56 days; behavior.
The next series concerns Tagia sp. Particulars: chronic/long-term; duration: 56 days; body weight.
Another series concerns Lepomis macrochirus. To be noted: acute; duration: 96 hours; mortality.
The subject of a further series is Apis mellifera. Particulars: acute, duration: 48 hours, mortality.
In the next series the test system is Coturnix japonica. To be noted: acute; oral; mortality.
Another series deals with Rattus norvegicus. Particulars: for NOAEL: reproduction developmental.
The next series relates to Canidae. To be noted: subchronic; duration: 90 days; oral; Dog Other; clinical signs.
The subject of a further series is Hypoaspis aculeifer. Particulars: acute; duration: 14 days.
Another series relates to Aphidius rhopalosiphi. Nature of the series: LR50; higher = less toxic. To be noted: not reported; mortality.

As usually defined, the NOAEL is the highest tested level that showed no adverse finding. Usually LC50 stands for the concentration that kills 50% of the test population.

Values after ≈ are worked out from the molar mass of the structure shown.

Regarding `CNC(=O)Oc1cc(C)c(SC)c(C)c1` [Methiocarb], the NOAEL is 4.51 mg/kg-day in the series with Anas platyrhynchos, 4.3 mg/kg-day with Rattus norvegicus (body weight), 0.5 mg/kg-day in the series with Rattus norvegicus (clinical signs) and 0.25 mg/kg-day in the series with Canidae. Moreover, the NOEC amounted to 0.0001 mg/L with Daphnia magna, 0.05 mg/L with Oncorhynchus mykiss, 0.08 mg/kg in the series with Tagia sp. and 10.1 mg/kg with Hypoaspis aculeifer. In the series on Lepomis macrochirus, this molecule had an LC50 of 0.65 µg/mL (≈ 2.88 µM). Also, the LD50 in the series on Apis mellifera (dermal) is 0.23 µg/piece; in the series on Apis mellifera (oral, unspecified) it was 0.08 µg/piece; in the series on Coturnix japonica, 5 mg/kg-day; in the series on Rattus norvegicus (acute, oral, mortality), less than 50 mg/kg-day. The molecule further came in with an LR50 with Aphidius rhopalosiphi of 8.5 g/ha.

For the origin of these results see EPA's ToxValDB 9.5 (doi:10.2903/j.efsa.2018.5429).
